Laboratory results published in US6867305B2, “Synthesis of epothilones, intermediates thereto and analogues thereof” (Sloan-Kettering Institute for Cancer Research, priority 1996, dated 2005).
pIC50: −log10 of the molar value. Structures can show the parent of a compound that is named as a salt.

Columns and labels:
[1] = tested on: MX-1 mammary carcinoma xenograft; conditions: MX-1, i.p., ref 19 (Table 4)
[2] = tested on: MCF-7/Adr; assay: Tumor cell growth inhibition in vitro; assay type: cell-based, human; conditions: Homo sapiens, NCI/ADR-RES, MCF-7/Adr
Protocol: (§1) The cells were cultured at an initial density of 2-5×10^4 cells per ml. […] For solid tumor cells growing in a monolayer (such as MCF-7/Adr), cytotoxicitiy of the drug was determined in 96-well microtiter plates by using the sulforhodamine B method as described by Skehan et al (23) for measuring the cellular protein content. For cells that were grown in suspension (such as CCRF-CEM and its sublines), cytotoxicitiy was measured by using the 2,-3-bis(2-methoxy-4-nitro-5-sulfophenyl)-5carboxanilide)-2H terazodium hydroxide (XTT)-microculture tetrazonium method (24) in duplicate in 96-well microtiter plates. For both methods, the absorbance of each well was measured with a microplate reader (EL-340, Bio-Tek, Burlington, Vt.). Each run entailed six or seven concentrations of the tested drugs. Dose-effect relationship data were analyzed with the median-effect plot (25) by using a previously described computer program (26).

[3] = tested on: CCRF-CEM/VBL1000; assay: Cell growth inhibition, resistant subline; assay type: cell-based; conditions: Homo sapiens
Protocol: (§2) The fresh medium containing each drug was replenished every 7-14 days. […] In each case ,the drug-exposed cells were resuspended in fresh media for a minimum of 4 days before the experiments for the cell-growth inhibition was carried out.
(§3) The cells were cultured at an initial density of 2-5×10^4 cells per ml. They were maintained in a 5% CO2-humidified atmosphere at 37° C. in RPMI mediun 1640 (GIBCO/BRL) containing penicillin (100 units/ml), streptomycin (100 μg/ml) (GIBCO/BRL), and 5% heat-inactivated fetal bovine serum. For solid tumor cells growing in a monolayer (such as MCF-7/Adr), cytotoxicitiy of the drug was determined in 96-well microtiter plates by using the sulforhodamine B method as described by Skehan et al (23) for measuring the cellular protein content. For cells that were grown in suspension (such as CCRF-CEM and its sublines), cytotoxicitiy was measured by using the 2,-3-bis(2-methoxy-4-nitro-5-sulfophenyl)-5carboxanilide)-2H terazodium hydroxide (XTT)-microculture tetrazonium method (24) in duplicate in 96-well microtiter plates. For both methods, the absorbance of each well was measured with a microplate reader (EL-340, Bio-Tek, Burlington, Vt.). Each run entailed six or seven concentrations of the tested drugs. Dose-effect relationship data were analyzed with the median-effect plot (25) by using a previously described computer program (26).

[4] = tested on: MCF-7/Adr mammary xenograft; assay: Human tumor xenograft in nude mice; assay type: in vivo; conditions: i.v. infusion
[5] = tested on: MCF-7 human mammary adenocarcinoma; assay: Tumor cell growth inhibition in vitro; assay type: cell-based; conditions: Homo sapiens, MCF7, MCF-7; read-out: IC50
Protocol: as §1

[6] = tested on: UL-3-C ovarian adenocarcinoma; assay: Tumor cell growth inhibition in vitro; assay type: cell-based, human; conditions: Homo sapiens
Protocol: as §2, §3

[7] = tested on: A549 lung carcinoma xenograft; assay: Human tumor xenograft in nude mice; assay type: in vivo; conditions: A549, i.v. infusion
Protocol: (§4) Depending on the tumor type, treatment started on day 10 to day 21 when subcutaneous tumor size reached 35-200 mm^3, except otherwise indicated. Tumor size and body-weight were recorded every other day (Q2D) and, for humane reasons, the animals were sacrificed when tumor size reached ≧10% of body-weight. Each group, including untreated control, consisted of 3-5 animals unless otherwise indicated.
(§5) Athymic nude mice bearing the nu/nu gene were used for all human tumor xenografts. Outbred, Swiss-background mice were obtained from Charles River Laboratories. Male mice 8 weeks or older weighing 22 g and up were used for most experiments. The drug was administered via the tail vein for 6 hr.-i.v. infusion. Each individual mouse was confined in a perforated Falcon polypropylene tube restrainer for drug administration. Tumor volume was assessed by measuring length×width×height (or width) using a caliper. The programmable Harvard PHD2000 syringe pump (Harvard Apparatus) with multi-track was used for i.v. infusion. […] All animal studies were conducted in accordance with the guidelines of the National Institutes of Health “Guide for the Care and Use of Animals” and the protocol approved by the Memorial Sloan-Kettering Cancer Center's Institutional Animal Care and Use Committee. In keeping with the policy of this committee for the humane treatment of tumor-bearing animals, mice were euthanized when tumors reached ≧10% of their total body weight.
(§6) Human tumor cells (5×10^6) or tumor tissue (30-50 mg) were implanted s.c. flank in nu/nu mice (Charles River Laboratories, Wilmington, Mass.). When tumor grew to a specified size, treatment was started by every-other day×5 with 6 hr i.v.-infusion, unless otherwise indicated. Tumor volume was measured with calipers in three dimensions (length×width×height or width). Body-weight changes and lethality were monitored every other day.

[8] = tested on: PC-3 prostate adenocarcinoma xenograft; assay: Human tumor xenograft in nude mice; assay type: in vivo; conditions: PC-3, i.v. infusion
Protocol: as §4, §5, §6

[9] = tested on: UL-3-B/Taxol; assay: cells; conditions: Homo sapiens, UL-3-B/Taxol
[10] = tested on: K562 chronic myelocytic leukemia xenograft; assay: Human tumor xenograft in nude mice; assay type: in vivo
Protocol: FIG. 34 depicts tumor size in nude mice bearing human leukemia […] tumor following 6 mg/kg C-15-Aza-EpoB, Q2D×6 and 30 mg/kg dEpoF, Q2ED×6 (i.v. infusion […].). K562 tumor cells (1×10^7 in 0.2 mL) were inoculated to nude mice on day 0. Mice were treated with 6 mg/kg aza-EpoB, 6 h-i.v. infusion on days 20, 22, 24, 26, 28 and 30 (Δ, n=3). The same group of mice were then treated with 30 mg/kg dEpoF, 6 h-i.v. infusion on days 42, 44, 46, 48, 52, and 54 (Δ, n=3). […] The control mice (∘, n=3) received vehicle only.
K562 tumor cells (1×10^7, in 0.2 ml/mouse) were implanted s.c. on day 0. […] The control mice (∘, n=4) received vehicle, Cremophor-ethanol (1:1), only. The vertical bars indicate mean tumor size in mm^3±S.E.
as §4, §5, §6

[11] = tested on: CCRF-CEM/VBL; assay: Relative potency in vitro, very highly resistant MDR cells; assay type: cell-based, human; conditions: Homo sapiens, CCRF-CEM, read-out: CCRF-CEM/VBL IC50 in μM
Protocol: as §3

Compound: CC[C@]1(O)C[C@@H]2CN(CCc3c([nH]c4ccccc34)[C@@](C(=O)OC)(c3cc4c(cc3OC)N(C)[C@H]3[C@@](O)(C(=O)OC)[C@H](OC(C)=O)[C@]5(CC)C=CCN6CC[C@]43[C@@H]65)C2)C1 [Vinblastine, vinblastine sulfate, reference compound]
- Therapeutic Effect Rank Order [1]: dEpoB>Camptothecin>Taxol>VBL, EpoB
- pIC50 [2]: 7.60
- pIC50 [3]: 6.01
- Therapeutic Effect Rank Order [4]: dEpoB>>VP-16, Taxol>VBL, Adriamycin
- pIC50 [5]: 8.03
- pIC50 [6]: 9.43
- Therapeutic Effect Rank Order [7]: Taxol, dEpoB, VBL>VP-16
- Therapeutic Effect Rank Order [8]: Taxol, VBL>dEpoB>>VP-16
- pIC50 [9]: 8.51
- Therapeutic Effect Rank Order ([10]; K562, i.v. infusion, FIG. 3 & 4): dEpoB>>>VBL> Taxol> Adriamycin
- therapeutic effect ([10]; K562, dEpoB 30 mg/kg, Taxol 20 mg/kg 6 hr i.v. infusion, Adriamycin 3 mg/kg, vinblastine 2.5 mg/kg i.v., every other day from day 20 (FIG. 36)): only partial curative or remissive effects
- IC50 [11]: 2.02 µM
